In patent US20050148553A1, “Use of tigecycline, alone, or in combination with rifampin to treat osteomyelitis and/or septic arthritis” (priority 2003, published 2005):
Values after ≈ are worked out from the molar mass of the structure shown. Values joined by “and” are separate entries in the source; they are usually repeats but may differ in a detail not shown here. Equal values may be shown once. Read-outs that look alike come from different tables or passages of the source.

How the values were obtained:
A. baumanii = test: Susceptibility of patient isolate; assay type: cell-based, Acinetobacter baumannii; settings: A. baumanii from patient bone
Acinetobacter baumannii = test: Compassionate use study, osteomyelitis patient; assay type: in vivo, human; settings: one human patient
Description: The patient was treated with meropenem and tobramycin. […] The patient was then treated with tigecycline for two months with either 50 mg every 12 hours or 50 mg every 24 hours.

[1] = test system: methicillin-resistant S. aureus; test: microbe, parasite or virus in culture; assay type: cell-based, Staphylococcus aureus; settings: for MBC / MIC: Staphylococcus aureus; for MBC: read-out: minimum bactericidal concentration (MBC); for MIC: read-out: minimum inhibitory concentration (MIC)
Description: The minimum inhibitory concentrations (MIC) of tigecycline, vancomycin and rifampin were determined using an antibiotic two-fold tube-dilution method. The minimum bactericidal concentrations were also determined. The limits of sensitivity of this method were 25 μg/ml to 0.20 μg/ml.

[2] = Adverse events and weight variance in infected treated rabbits; settings: infected rabbits after antibiotic treatment
Text: All rabbits were monitored weekly for weight variance. […] The key for FIGS. 4A and B is as follows: Control=control group, no treatment; Vancomycin=subcutaneous vancomycin treated group; Vanco+Rifampin=subcutaneous vancomycin with oral rifampin treated group; Gar-936=subcutaneous Gar-936 treated group; Gar-936+Rifampin=subcutaneous Gar-936 with oral Rifampin treated group.

[3] = Antibiotic levels in rabbit serum and bone by diffusion bioassay; assay type: in vivo, New Zealand white rabbits; settings: infected rabbits; tigecycline 14 mg/kg, vancomycin 30 mg/kg twice daily
Description: Normal NZW rabbit serum (Fisher Scientific) and normal, uninfected rabbit tibia bone were used to generate standard curves for tigecycline (Wyeth-Ayerst Research, Pearl River, N.Y.), vancomycin (Abbott Laboratories, Chicago, Ill.), and rifampin (Merrell Pharmaceuticals Inc. Kansas, Mo.). Bioassays were performed with each drug to generate the standard curves for antibiotic concentration in serum and/or tibial bone.
The organism used for the bioassay was Bacillus cereus ATCC11778. Serum standards were prepared using two-fold serial dilutions with either antibiotic to yield concentrations of 25 μg/ml to 0.20 μg/ml drug in Normal NZW rabbit serum. Bone eluate standards were prepared for tigecycline by thoroughly cleaning noninfected rabbit tibias with 70% ethanol in a sterilized fume hood. Each tibia was broken into small chips of approximately 0.5 cm^2 using a grinder. The chips were placed into a sterile, 50 ml conical centrifuge tube and weighed. One milliliter of sterile, 0.9% normal saline was added for each gram of bone chips. The solution was thoroughly vortexed for two minutes. The resulting bone eluate was allowed to shake at 180 rpm in a cold room at 4° C., for 12 hours. The samples were centrifuged at 4000 rpm for 3 minutes prior to assay, to pellet the chips.
The diameter of the zone of growth inhibition around each well was measured, in millimeters. A standard curve was generated for tigecycline concentration in both serum and bone eluate and for vancomycin in serum by plotting the known antibiotic concentration against its resulting zone of inhibition measurement. […]
Serum samples were stored at −70° C. until the bioassay was performed. […] The diameter of the zone of growth inhibition around each well was measured and concentrations of tigecycline were extrapolated from the standard curve.
Peak and trough levels of antibiotic were determined for Groups 2 and 4 at 1 hour (peak) and 12 hour (trough) after the initial antibiotic administration. Antibiotic concentrations were determined by means of a bioassay. […]

[4] = test system: methicillin-resistant S. aureus
Description: Preparation of the Infective Media: S. aureus was incubated overnight in Mueller Hinton Broth (Difco Laboratories, Detroit, Mich.) medium spiked with 40 μg/ml oxacillin, at 37° C. The bacterial concentration of the culture was adjusted to 10^7 CFU's/ml.
Rabbit Infection Procedure: New Zealand white rabbits (Ray Nicholl's Rabbitry, Lumberton, Tex.), eight to 12 weeks old and weighing 2.0 to 3.5 kg, were utilized for the study. After anesthesia was given, an 18-gauge needle was inserted percutaneously through the lateral aspect of the left tibial metaphysis into the intramedullary cavity. Next, 0.15 ml of 5% sodium morrhuate (American Regent Laboratories, Inc., Shirley, N.Y.), 0.1 ml of S. aureus (10^7 CFU/ml), and 0.2 ml of sterile, normal saline, 0.9%, were injected sequentially.
Group 1 (control group): infected but left untreated for the duration of the study. Group 2: rabbits were treated for 4 weeks with subcutaneous vancomycin at 30 mg/kg twice daily. Group 3: rabbits were treated for 4 weeks with subcutaneous vancomycin at 30 mg/kg twice daily plus oral rifampin at 40 mg/kg twice daily in 0.5% methylcellulose. Group 4: rabbits were treated for 4 weeks with subcutaneous tigecycline at 14 mg/kg twice daily. Group 5: rabbits were treated for 4 weeks with subcutaneous tigecycline at the same dose as in the rabbits in Group 4, plus oral rifampin at 40 mg/kg twice daily in 0.5% methylcellulose. […] Group 6: rabbits were treated for 1 week with subcutaneous tigecycline at the same dose as in Group 4, but were sacrificed 3 hours after administration of the last dose. At that time, blood and infected bone samples were collected and tigecycline concentration was determined. Groups 1 to 5 were left untreated for 2 weeks after treatment phase of the experiment and sacrificed at 8 weeks after infection.
Radiographs of bilateral tibias were taken at initiation of therapy (2 weeks after infection), at the end of antibiotic therapy (6 weeks after infection), and at sacrifice (8 weeks after infection). Radiographs were scored according to a visual scale (Table 1) by three investigators, each blinded to the treatment group, and the grades were averaged.
After sacrifice, gross cultures were performed for right and left tibias. Quantitative counts of S. aureus, in CFUs per gram, of left tibial bone and marrow were determined for all study groups.
Culture Preparation: The bone marrow and the intramedullary canal of bilateral tibias were swabbed with sterile cotton tip applicators for gross cultures analysis of left tibias and quality assurance checks of right tibias. The inoculated applicator was streaked onto blood plates and then placed into 5 ml of sterile TSB. The plates and tubes were then incubated at 37° C. for 24 hours and growth and/or turbidity was recorded.
The bone marrow was placed into a sterile, 50 ml centrifuge tube and weighed. The bone fragments were broken into 0.5 cm^2 chips, placed into a sterile, 50 ml centrifuge tube, and the final product weighed. Normal sterile saline, 0.9%, was added in a 3 to 1 ratio (3 ml saline/gram of bone or marrow) and the suspensions were vortexed for 2 minutes. Six ten-fold dilutions of each suspension were prepared with sterile, normal saline, 0.9%. Twenty-microliter samples of each dilution, including the initial suspension, was plated, in triplicate, onto blood agar plates and incubated at 37° C. for 24 hours. CFUs were counted at the greatest dilution for each tibia sample.

M. abcessus = test: Susceptibility/MIC of patient isolate, compassionate use study; assay type: cell-based, Mycobacterium abscessus; settings: M. abscessus patient isolate
Mycobacterium abscessus = assay type: in vivo, human; settings: human, in vivo
Description: Debridement was accomplished after one year of infection with placement of hardware. […] The amikacin was later stopped due to renal damage. Linezolid and azithromycin were later added to the treatment regimen. The organism was determined to be resistant to moxifloxacin.
The patient presented later with a new vertebral osteomyelitis just above the site of the old infection. A biopsy was performed and it was determined that no additional debridement was needed. […] Tigecycline was administered up to MIC 0.25 micrograms/ml. The patient's white blood cell count was normal while hypogammaglobulinemia was present and lymphocytic function decreased. The patient had also been under treatment with IL-12, but IL-12 was held during antibiotic treatment.

[5] = average grade, t=14 versus t=56 days
[6] = individual rabbits, left tibia, 8 weeks after infection

With `NC[C@H]1O[C@H](O[C@H]2[C@H](O)[C@@H](O[C@H]3O[C@H](CO)[C@@H](O)[C@H](N)[C@H]3O)[C@H](N)C[C@@H]2N)[C@H](N)C[C@@H]1O` [tobramycin] as the compound, how does the “susceptibility of the organism” value (A. baumanii) read?
The value was “susceptible”.

What about the “adverse event leading to discontinuation” value (Acinetobacter baumannii) of the same compound?
The value was “increased creatinine”.

With `O=C(O)c1cn(C2CC2)c2cc(N3CCNCC3)c(F)cc2c1=O` [ciprofloxacin] as the compound, how does the “susceptibility of the organism” value (A. baumanii) read?
Its value is “resistant”.

For `CN[C@H](CC(C)C)C(=O)N[C@H]1C(=O)N[C@@H](CC(N)=O)C(=O)N[C@H]2C(=O)N[C@H]3C(=O)N[C@H](C(=O)N[C@H](C(=O)O)c4cc(O)cc(O)c4-c4cc3ccc4O)[C@H](O)c3ccc(c(Cl)c3)Oc3cc2cc(c3O[C@@H]2O[C@H](CO)[C@@H](O)[C@H](O)[C@H]2O[C@H]2C[C@](C)(N)[C@H](O)[C@H](C)O2)Oc2ccc(cc2Cl)[C@H]1O` [Vancomycin], which MIC/MBC ratio ([1]; MRSA study strain) is on record?
Its MIC/MBC ratio is 0.5.

And the MBC ([1]; MRSA)?
Its MBC is 0.78 µg/mL (≈ 0.538 µM).

What about the MIC ([1]; MRSA) of the same compound?
The MIC was 0.39 µg/mL (≈ 0.269 µM).

What about the mean weight gain [2] of the same compound?
Its mean weight gain is 0.39 kg.

What about the “antibiotic serum levels (peaks and troughs)” value [3] of the same compound?
Its value is “above minimum inhibitory concentrations”.

And the “radiographic improvement (grade)” value [4, 5]?
The value was 0.5+/−0.2.

What about the “radiographic improvement (percent)” value [4, 5] of the same compound?
Its value is 25%.

What about the “percentage of bone samples positive for MRSA” value ([4]; bone cultures) of the same compound?
The value was 18.2%.

What about the “rabbits/samples positive for MRSA in bone” value ([4]; bone cultures at sacrifice) of the same compound?
Its value is 2 out of 11.

And the “proportion of positive cultures in marrow” value ([4]; compared with 0.33 (5/15) in control group)?
Its value is “not statistically significantly different from the control group”.

What about the “Counts (CFU/gm) Bone” value [4, 6] of the same compound?
Its value is 270.3 CFU/gm and 1315.8 CFU/gm and 0 CFU/gm (14×).

What about the “Counts (CFU/gm) Marrow” value [4, 6] of the same compound?
Its value is 1250 CFU/gm and 0 CFU/gm (15×).

What about the “average bacterial concentration of the group” value ([4]; tibia bone) of the same compound?
The value was 1.4×10^2 CFU/gram bone.

Which “susceptibility of the organism” value (A. baumanii) does the source give for gentamicin here?
The value was “susceptible”.

For `C[C@H]1[C@H](NC(=O)/C(=N\OC(C)(C)C(=O)O)c2csc(N)n2)C(=O)N1S(=O)(=O)O` [Aztreonam], which “adverse event leading to discontinuation” value (Acinetobacter baumannii) is on record?
Its value is “persistent eosinophilia”.

Which results are given for `CO[C@H]1/C=C/O[C@@]2(C)Oc3c(C)c(O)c4c(O)c(c(/C=N/N5CCN(C)CC5)c(O)c4c3C2=O)NC(=O)/C(C)=C\C=C\[C@H](C)[C@H](O)[C@@H](C)[C@@H](O)[C@@H](C)[C@H](OC(C)=O)[C@@H]1C` [rifampin]?
MIC/MBC ratio ([1]; MRSA study strain): 0.5; MIC ([1]; MRSA, MRSA study strain, inoculum 10^6 CFU/ml): 0.78 µg/mL (≈ 0.948 µM); MBC ([1]; MRSA study strain, inoculum 10^6 CFU/ml): 1.56 µg/mL (≈ 1.9 µM); bacterial outcome in bone and marrow, in words ([4]; end of study, MRSA infected rabbits): bactericidal activity

For `C[C@@H](O)[C@H]1C(=O)N2C(C(=O)O)=C(S[C@@H]3CN[C@H](C(=O)N(C)C)C3)[C@H](C)[C@H]12` [Meropenem], which “adverse event leading to discontinuation” value (Acinetobacter baumannii) is on record?
The value was “eosinophilia”.

For `CO[C@@]1(NC(=O)Cc2cccs2)C(=O)N2C(C(=O)O)=C(COC(N)=O)CS[C@@H]21` [cefoxitin, reference compound], which “susceptibility of the organism” value (M. abcessus) is on record?
Its value is “sensitive”.

Which “adverse event leading to discontinuation” value (Mycobacterium abscessus) does the source give for `NCC[C@H](O)C(=O)N[C@@H]1C[C@H](N)[C@@H](O[C@H]2O[C@H](CN)[C@@H](O)[C@H](O)[C@H]2O)[C@H](O)[C@H]1O[C@H]1O[C@H](CO)[C@@H](O)[C@H](N)[C@H]1O` [amikacin, reference compound] here?
The value was “renal damage”.
